Data taken from US7732470B2, “Compositions and methods for the treatment of renal and cardiovascular disease” (Medical College of Georgia Research Institute, priority 2006, dated 2010).

Test system: spontaneously hypertensive rats (SHR)
Assay: Blood pressure in spontaneously hypertensive rats
Assay type: in vivo, rat
Method: As the 11-nonyloxy-undec-8(Z)-enoic acid derivatives lowered blood pressure in angiontensin hypertension, additional experiments were performed to determine if one of the derivatives could lower blood pressure in another hypertension model system. Male spontaneously hypertensive rats (SHRs) were maintained on a 12-hour light-dark cycle and allowed access to food and water ad libitum. These studies complied with the protocols for animal use outlined by the American Physiological Society and were approved by the institutional animal care and use committee.
Rats from 6 to 12 weeks of age were treated with 11-nonyloxy-undec-8(Z)-enoic acid derivative (TVR-I-276-21)( 2 mg/d i.p.) or vehicle for 8 days. Blood pressure was measured at Day 0, Day 4, and Day 8.
The blood pressure lowering effects of these analogs were analyzed in an established model of hepertension, the spontaneously hypertensive rats (SHR) using telemetry. […] As discussed in the previous example, additional derivatives with improved solubility and resistance to auto-oxidation and metabolism by sEH were designed using the pharmacophoric moiety of EET.
Amidation of the carboxylic group with aspartic acid produced another EET analog 32 (SA-III-161-32). […] Amidation of the carboxylic group with lysine amino acid produced another EET analog 34 (SA-III-172-26).

Structure (SMILES): CCCCCCCCCOCC/C=C\CCCCCCC(=O)O [11,12-ether EET-8-ZE, 11-nonyloxy-undec-8(Z)-enoic acid, reference compound]
- blood pressure lowering: failed to lower blood pressure

Structure (SMILES): CCCCCCCCCOCC/C=C\CCCCCCC(=O)NC(CC(=O)O)C(=O)O (centres unmarked) [SA-III-161-32, (Z)-2-(11-(nonyloxy)undec-8-enamido) succinic acid]
- blood pressure lowering effect (injected at 3 mg/day for 5 days): demonstrated a blood pressure lowering effect
- MAP Δ change at day 2 of injection (injected at 3 mg/day for 5 days, telemetry): −8±1.3 mmHg

Structure (SMILES): CCCCCCCCCOCC/C=C\CCCCCCC(=O)NC(CCCCN)C(=O)O (centres unmarked) [SA-III-172-26, (Z)-6-amino-2-(11-(nonyloxy)undec-8-enamido)hexanoic acid]
- blood pressure lowering effect (injected at 2 mg/day): minimal blood pressure lowering effect

Structure (SMILES): CCCCCCCCCOCC/C=C\CCCCCCC(=O)OCCOCCOCCO [TVR-I-276-21, (Z)-2-(2-(2-hydroxyethoxy)ethoxy)ethyl 11-(nonyloxy)undec-8-enoate]
- blood pressure (2 mg/d i.p. for 8 days, measured Day 0, 4, 8, versus vehicle): did not increase to the same extent as those that received the vehicle treatment
